# From PubChem BioAssay (NCI)
#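 Method: 48-hour compound exposure of cells in 96-well plates, five concentrations, linear interpolation of endpoints. GI50 marks 50% less growth. At the TGI there is no net growth.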
# What was measured:
# Test in all cases: inhibition of tumour cell growth, NCI panel, 48 h
# A498 renal = tested on: A498 renal
# A549 NSCLC = tested on: A549 NSCLC
# EKVX NSCLC = tested on: EKVX NSCLC
# K-562 leukemia = tested on: K-562 leukemia
# OVCAR-4 ovarian = tested on: OVCAR-4 ovarian
# SF-268 CNS = tested on: SF-268 CNS
# SK-MEL-28 melanoma = tested on: SK-MEL-28 melanoma
# UO-31 renal = tested on: UO-31 renal
# MCF7 breast = tested on: MCF7 breast
# MDA-MB-231 breast = tested on: MDA-MB-231 breast
Structure (SMILES),TGI (A498 renal) [µM],TGI (A549 NSCLC) [µM],TGI (EKVX NSCLC) [µM],TGI (K-562 leukemia) [µM],TGI (OVCAR-4 ovarian) [µM],TGI (SF-268 CNS) [µM],TGI (SK-MEL-28 melanoma) [µM],TGI (UO-31 renal) [µM],GI50 (A498 renal) [µM],GI50 (A549 NSCLC) [µM],GI50 (K-562 leukemia) [µM],GI50 (MCF7 breast) [µM],TGI (MCF7 breast) [µM],GI50 (MDA-MB-231 breast) [µM],TGI (MDA-MB-231 breast) [µM],GI50 (OVCAR-4 ovarian) [µM],GI50 (SF-268 CNS) [µM],GI50 (SK-MEL-28 melanoma) [µM],GI50 (UO-31 renal) [µM],GI50 (EKVX NSCLC) [µM]
COC12C=CC(CC1)c1c(O)ccc(O)c12 (stereo not drawn),> 100,> 100,> 100,61.8,46.6,> 31.6,> 100,> 100,–,–,–,–,–,–,–,–,–,–,–,–
C=C1C(=O)O[C@H]2C[C@@H](C)[C@@H]3CC(=O)OC[C@@]3(C)CC12 (stereo partly drawn),–,> 100,> 100,68.5,54.4,> 100,47.8,> 100,–,–,–,–,–,–,–,–,–,–,–,–
O=S(=O)(c1ccc(NC(=S)NCc2cccnc2)cc1)N1CCCCC1,> 100,> 100,–,> 100,> 100,> 100,> 100,> 100,15,11,1.38,12.7,> 100,26.4,> 100,23,17.2,50.4,21.5,–
COc1cc(Cn2cc3c(c2)-c2oncc2CC3)cc(OC)c1OC,1.04,> 100,> 65.7,> 34.7,> 100,> 55.4,–,15.1,0.0196,0.0509,< 0.0183,0.0324,> 100,0.0601,> 100,0.152,0.0778,–,0.0594,0.0467
CCOC(=O)C=C1CCN(C(=O)c2ccccc2)CC1,> 100,> 100,> 100,> 100,> 100,> 100,> 100,> 100,–,–,–,–,–,–,–,–,–,–,–,–
CN1CCc2c1nc(-c1ccccc1)c1c2N(C)CC1,> 100,> 100,> 100,> 100,> 100,> 100,–,78.5,–,–,–,–,–,–,–,–,–,–,–,–
COc1cc2cc(Oc3ccc(NC(=O)Nc4ccc(Cl)c(C(F)(F)F)c4)cc3)c(C)nc2cc1OCCN1CCCCC1,2.58,–,2.88,2.33,3.29,–,3.23,2.69,1.24,–,0.547,–,–,1.39,2.75,1.46,–,1.79,1.36,1.46
O=C(O)[C@@H]1C2CC([C@@H]1C(=O)O)[C@H](N1C(=O)CCC1=O)[C@@H]2Br (stereo partly drawn),> 100,> 100,> 100,> 100,> 100,> 100,> 100,> 100,–,–,–,–,–,–,> 100,–,–,–,–,–
COc1cccc(OC(=O)c2ccccc2Nc2ccnc(C(F)(F)F)c2)c1,–,20.7,> 100,> 100,–,26.7,> 100,> 100,–,3.18,0.739,7.29,> 100,2.12,16.9,–,4.65,12.7,61.2,6.62
O=C1C/C(=C/c2ccc(/C=C3/CC(=O)N(c4cccc(Br)c4)C3=O)cc2)C(=O)N1c1cccc(Br)c1,> 100,> 100,> 100,> 100,> 100,> 100,> 100,> 100,–,–,–,–,–,–,–,–,–,–,–,–
CCCN(Cc1ccc(F)cc1)c1ccc(CO)c(Cl)c1,0.102,16.5,–,15.2,7.9,32.1,27,13.9,0.0236,2.12,2.22,0.375,12.9,13,27.3,0.4,16.1,13.7,2.65,–
COC(=O)c1[nH]c(=S)[nH]c(=O)c1-c1ccc(Cl)cc1,> 50,> 50,> 50,> 50,> 50,> 50,> 50,> 50,–,–,–,–,–,–,–,–,–,–,–,–
CCCC(O)[C@@H](O)c1ccc2c(c1O)C(=O)c1c(OC)cccc1C2=O (stereo partly drawn),> 100,> 100,> 100,> 100,> 100,> 100,> 100,91.2,–,–,–,–,–,–,–,–,–,–,–,–
CN(C)c1ccc2nc3ccc(=[N+](C)C)cc-3oc2c1,41.9,84.1,6.76,71.9,–,4.64,45.7,89.3,13.7,2.91,1.58,0.368,2.3,–,–,–,1.59,5.72,12.8,0.636
Nc1cc(=O)[nH]c(SC2=NC(N)CC(O)C2)n1 (stereo not drawn),–,–,> 100,> 100,> 100,–,> 100,> 100,–,–,–,–,–,–,–,–,–,–,–,–
O=C(CCN1CCCC1)Nc1ccc2c(NCc3ccc(F)cc3)c3ccccc3nc2c1,2.26,1.79,2.3,–,1.84,1.91,2.88,3.09,0.733,0.384,–,0.314,1.31,0.454,1.91,0.45,0.465,1.47,1.33,0.58
COc1ccc(Cn2nc(-c3cc(OC)c(OC)c(OC)c3)c3c2CCc2cnoc2-3)cc1OC,9.8,> 100,–,–,83.9,> 100,> 100,> 100,2,6.27,–,3.45,18.3,8,> 100,4.96,5.41,10.3,4.17,–
CN(C)CCCNC(=O)c1cc(NC(=O)CCNS(=O)(=O)c2ccc3c(c2)C(=O)c2ccccc2C3=O)cn1C,> 100,> 100,> 100,> 100,–,> 100,–,> 100,> 100,> 100,> 100,> 100,> 100,> 100,> 100,–,> 100,–,> 100,> 100
